The numbers were not newly measured in patent EP1569663B1, “IFOSFAMIDE COMPOSITIONS FOR PARENTERAL ADMINISTRATION AND A PROCESS FOR THEIR PREPARATION” (Bharat Serums & Vaccines Ltd., priority 2002, dated 2004), which cites them from elsewhere.

Each structure is given as a SMILES string.

The test system of one data set is mouse. The conditions noted are these: intravenous administration.
The conditions of data set [1]: in water.

Regarding `O=P1(NCCCl)OCCCN1CCCl` (centres unmarked) [Ifosfamide, 3-(2-chtoroethyl)-2-[(2-chloroethyl)amino]-tetrahydro-2H-1,3,2-oxazaphosphorin-2-oxide], in the data set on mouse, the LD50 is 338 mg/kg body weight. For the same compound, the water solubility entry in data set [1] is on record as “about 100 mg/ml”.
